Measured values as given in patent US8802597B2, “Herbicidal pyrimidines” (E I du Pont de Nemours and Company, priority 2003, dated 2014).

What was measured:
Format in all cases: in vivo
[1] = test system: Russian thistle (Salsola kali); assay: Test D pre/postemergence; settings: scale 0 to 100 (100 = complete control)
Procedure, shortened: (§1)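 Pre: seeds sown, then treated. Post: plants at 1- to 4-leaf stage (2 to 18 cm) sprayed at the same time. Chemicals formulated in a non-phytotoxic solvent mixture including surfactant. After 15 to 25 days under controlled growth conditions, response rated visually from 0 (no effect) to 100 (complete control).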

[2] = test system: catchweed bedstraw (galium; Galium aparine); assay: Test D pre/postemergence; settings: scale 0 to 100 (100 = complete control)
Procedure, shortened: as §1

[3] = test system: common chickweed (Stellaria media); assay: Test D pre/postemergence; settings: scale 0 to 100 (100 = complete control)
Procedure, shortened: as §1

[4] = test system: kochia (Kochia scoparia); assay: Test D pre/postemergence; settings: scale 0 to 100 (100 = complete control)
Procedure, shortened: as §1

[5] = test system: lambsquarters (Chenopodium album); assay: Test D pre/postemergence; settings: scale 0 to 100 (100 = complete control)
Procedure, shortened: as §1

[6] = test system: pigweed (Amaranthus retroflexus); assay: Test D pre/postemergence; settings: scale 0 to 100 (100 = complete control)
Procedure, shortened: as §1

[7] = test system: wheat (Triticum aestivum); assay: Test D pre/postemergence; settings: scale 0 to 100 (100 = complete control)
Procedure, shortened: as §1

[8] = test system: wild buckwheat (Polygonum convolvulus); assay: Test D pre/postemergence; settings: scale 0 to 100 (100 = complete control)
Procedure, shortened: as §1

[9] = test system: wild mustard (Sinapis arvensis); assay: Test D pre/postemergence; settings: scale 0 to 100 (100 = complete control)
Procedure, shortened: as §1

[10] = test system: broadleaf signalgrass (Brachiaria platyphylla); assay: Test G pre/postemergence; settings: Preemergence
Procedure, shortened: (§2)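 Visual scores from 0 (no effect) to 100 (complete control) were assigned relative to untreated controls 12 to 21 days after treatment. Compounds, formulated in a non-phytotoxic solvent mixture with surfactant, were applied preemergence to planted seed or postemergence to plants at the 1- to 4-leaf stage (2 to 18 cm).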

[11] = test system: common mallow (Malva sylvestris); assay: Test G pre/postemergence; settings: Preemergence
Procedure, shortened: as §2

[12] = test system: large crabgrass (Digitaria sanguinalis); assay: Test G pre/postemergence; settings: Preemergence
Procedure, shortened: as §2

[13] = test system: quackgrass (Elytrigia repens); assay: Test G pre/postemergence; settings: Preemergence
Procedure, shortened: as §2

For `COC(=O)c1nc(C2CC2)nc(N)c1Cl` [Compound 9, methyl 6-amino-5-chloro-2-cyclopropyl-4-pyrimidinecarboxylate], the “Plant response rating, Russian Thistle” value ([1]; Postemergence, 16 g ai/ha) was 65, the “Plant response rating, Russian Thistle” value ([1]; Postemergence, 31 g ai/ha) was 90 and the “Plant response rating, Russian Thistle” value ([1]; Postemergence, 62 g ai/ha) was 100. The “Plant response rating, Russian Thistle” value ([1]; Postemergence, 125 g ai/ha) was 100, the “Plant response rating, Russian Thistle” value ([1]; Preemergence, 16 g ai/ha) was 100 and the “Plant response rating, Russian Thistle” value ([1]; Preemergence, 31 g ai/ha) was 100. For the same compound, the “Plant response rating, Russian Thistle” value ([1]; Preemergence, 62 g ai/ha) was 100, the “Plant response rating, Russian Thistle” value ([1]; Preemergence, 125 g ai/ha) was 100 and the “Plant response rating, Galium” value ([2]; Postemergence, 16 g ai/ha) was 100. For the same compound, the “Plant response rating, Galium” value ([2]; Postemergence, 31 g ai/ha) was 100, the “Plant response rating, Galium” value ([2]; Postemergence, 62 g ai/ha) was 100 and the “Plant response rating, Galium” value ([2]; Postemergence, 125 g ai/ha) was 100. For the same compound, the “Plant response rating, Galium” value ([2]; Preemergence, 16 g ai/ha) was 85, the “Plant response rating, Galium” value ([2]; Preemergence, 31 g ai/ha) was 100 and the “Plant response rating, Galium” value ([2]; Preemergence, 62 g ai/ha) was 100. For the same compound, the “Plant response rating, Galium” value ([2]; Preemergence, 125 g ai/ha) was 100, the “Plant response rating, Chickweed” value ([3]; Postemergence, 16 g ai/ha) was 60 and the “Plant response rating, Chickweed” value ([3]; Postemergence, 31 g ai/ha) was 100. For the same compound, the “Plant response rating, Chickweed” value ([3]; Postemergence, 62 g ai/ha) was 100, the “Plant response rating, Chickweed” value ([3]; Postemergence, 125 g ai/ha) was 100 and the “Plant response rating, Chickweed” value ([3]; Preemergence, 16 g ai/ha) was 65. The “Plant response rating, Chickweed” value ([3]; Preemergence, 31 g ai/ha) was 95, the “Plant response rating, Chickweed” value ([3]; Preemergence, 62 g ai/ha) was 100 and the “Plant response rating, Chickweed” value ([3]; Preemergence, 125 g ai/ha) was 100. For the same compound, the “Plant response rating, Kochia” value ([4]; Postemergence, 16 g ai/ha) was 85, the “Plant response rating, Kochia” value ([4]; Postemergence, 31 g ai/ha) was 100 and the “Plant response rating, Kochia” value ([4]; Postemergence, 62 g ai/ha) was 100. For the same compound, the “Plant response rating, Kochia” value ([4]; Postemergence, 125 g ai/ha) was 100, the “Plant response rating, Kochia” value ([4]; Preemergence, 16 g ai/ha) was 70 and the “Plant response rating, Kochia” value ([4]; Preemergence, 31 g ai/ha) was 98. For the same compound, the “Plant response rating, Kochia” value ([4]; Preemergence, 62 g ai/ha) was 100, the “Plant response rating, Kochia” value ([4]; Preemergence, 125 g ai/ha) was 100 and the “Plant response rating, Lambsquarters” value ([5]; Postemergence, 16 g ai/ha) was 95. The “Plant response rating, Lambsquarters” value ([5]; Postemergence, 31 g ai/ha) was 100, the “Plant response rating, Lambsquarters” value ([5]; Postemergence, 62 g ai/ha) was 100 and the “Plant response rating, Lambsquarters” value ([5]; Postemergence, 125 g ai/ha) was 100. The “Plant response rating, Lambsquarters” value ([5]; Preemergence, 16 g ai/ha) was 65, the “Plant response rating, Lambsquarters” value ([5]; Preemergence, 31 g ai/ha) was 100 and the “Plant response rating, Lambsquarters” value ([5]; Preemergence, 62 g ai/ha) was 100. For the same compound, the “Plant response rating, Lambsquarters” value ([5]; Preemergence, 125 g ai/ha) was 100, the “Plant response rating, Pigweed” value ([6]; Postemergence, 16 g ai/ha) was 65 and the “Plant response rating, Pigweed” value ([6]; Postemergence, 31 g ai/ha) was 100. The “Plant response rating, Pigweed” value ([6]; Postemergence, 62 g ai/ha) was 100, the “Plant response rating, Pigweed” value ([6]; Postemergence, 125 g ai/ha) was 100 and the “Plant response rating, Pigweed” value ([6]; Preemergence, 16 g ai/ha) was 65. The “Plant response rating, Pigweed” value ([6]; Preemergence, 31 g ai/ha) was 80, the “Plant response rating, Pigweed” value ([6]; Preemergence, 62 g ai/ha) was 100 and the “Plant response rating, Pigweed” value ([6]; Preemergence, 125 g ai/ha) was 100. For the same compound, the “Plant response rating, Wheat” value ([7]; Postemergence, 16 g ai/ha) was 50, the “Plant response rating, Wheat” value ([7]; Postemergence, 31 g ai/ha) was 80 and the “Plant response rating, Wheat” value ([7]; Postemergence, 62 g ai/ha) was 90. For the same compound, the “Plant response rating, Wheat” value ([7]; Postemergence, 125 g ai/ha) was 100, the “Plant response rating, Wheat” value ([7]; Preemergence, 16 g ai/ha) was 60 and the “Plant response rating, Wheat” value ([7]; Preemergence, 31 g ai/ha) was 75. For the same compound, the “Plant response rating, Wheat” value ([7]; Preemergence, 62 g ai/ha) was 75, the “Plant response rating, Buckwheat, Wild” value ([8]; Postemergence, 16 g ai/ha) was 65 and the “Plant response rating, Buckwheat, Wild” value ([8]; Postemergence, 31 g ai/ha) was 80. The “Plant response rating, Buckwheat, Wild” value ([8]; Postemergence, 62 g ai/ha) was 100, the “Plant response rating, Buckwheat, Wild” value ([8]; Postemergence, 125 g ai/ha) was 100 and the “Plant response rating, Buckwheat, Wild” value ([8]; Preemergence, 16 g ai/ha) was 60. For the same compound, the “Plant response rating, Buckwheat, Wild” value ([8]; Preemergence, 31 g ai/ha) was 85, the “Plant response rating, Buckwheat, Wild” value ([8]; Preemergence, 62 g ai/ha) was 100 and the “Plant response rating, Buckwheat, Wild” value ([8]; Preemergence, 125 g ai/ha) was 100. For the same compound, the “Plant response rating, Mustard, Wild” value ([9]; Postemergence, 16 g ai/ha) was 65, the “Plant response rating, Mustard, Wild” value ([9]; Postemergence, 31 g ai/ha) was 80 and the “Plant response rating, Mustard, Wild” value ([9]; Postemergence, 62 g ai/ha) was 80. For the same compound, the “Plant response rating, Mustard, Wild” value ([9]; Postemergence, 125 g ai/ha) was 95, the “Plant response rating, Mustard, Wild” value ([9]; Preemergence, 16 g ai/ha) was 60 and the “Plant response rating, Mustard, Wild” value ([9]; Preemergence, 31 g ai/ha) was 70. The “Plant response rating, Mustard, Wild” value ([9]; Preemergence, 62 g ai/ha) was 85, the “Plant response rating, Mustard, Wild” value ([9]; Preemergence, 125 g ai/ha) was 85 and the “Plant response rating, Signalgrass” value ([10]; 62 g ai/ha, scale 0-100) was 20. For the same compound, the “Plant response rating, Signalgrass” value ([10]; 125 g ai/ha, scale 0-100) was 80, the “Plant response rating, Signalgrass” value ([10]; 250 g ai/ha, scale 0-100) was 80 and the “Plant response rating, Signalgrass” value ([10]; 500 g ai/ha, scale 0 to 100) was 100. For the same compound, the “Plant response rating, Mallow” value ([11]; 62 g ai/ha, scale 0-100) was 90, the “Plant response rating, Mallow” value ([11]; 125 g ai/ha, scale 0-100) was 100 and the “Plant response rating, Mallow” value ([11]; 250 g ai/ha, scale 0-100) was 100. The “Plant response rating, Mallow” value ([11]; 500 g ai/ha, scale 0 to 100) was 100, the “Plant response rating, Crabgrass, Large” value ([12]; 62 g ai/ha, scale 0-100) was 70 and the “Plant response rating, Crabgrass, Large” value ([12]; 125 g ai/ha, scale 0-100) was 90. The “Plant response rating, Crabgrass, Large” value ([12]; 250 g ai/ha, scale 0-100) was 90, the “Plant response rating, Crabgrass, Large” value ([12]; 500 g ai/ha, scale 0 to 100) was 100 and the “Plant response rating, Quackgrass” value ([13]; 62 g ai/ha, scale 0-100) was 70. The “Plant response rating, Quackgrass” value ([13]; 250 g ai/ha, scale 0-100) was 70 and the “Plant response rating, Quackgrass” value ([13]; 500 g ai/ha, scale 0 to 100) was 100.
